{"source": "patent US12180222B2", "about": "“Crystal forms of thiophene derivatives” (Tianjin Hemay Pharmaceutical Co., Ltd, priority 2018, dated 2024)", "assay_type_in_all_cases": "physicochemical", "key": {"[1]": {"test": "Dissolution rate of crystal form in water", "conditions": "about 25 mg in 900 mL water, 37° C., rotating speed 100/minute", "experimental": "The crystal form III of (S)—N-[5-[l-(3-ethoxy-4-methoxyphenyl)-2-(methylsulfonyl)ethyl]-4,6-dioxo-5,6-dihydro-4H-thieno[3,4-c]pyrrole-1-yl]acetamide prepared according to the process in Example 1 was tested.\nAbout 25 mg of crystal form III of (S)—N-[5-[1-(3-ethoxy-4-methoxyphenyl)-2-(methylsulfonyl)ethyl]-4,6-dioxo-5,6-dihydro-4H-thieno[3,4-c]pyrrole-1-yl]acetamide was added to 900 mL of water. The mixture was stirred at a rotating speed of 100/minute at 37° C. for 90 minutes. The supernatant was filtered and diluted. The concentration of the diluted solution (a mg/mL) was determined by ultraviolet spectrophotometer. The dissolution rate was calculated according to the formula 900a/25×100%."}, "[2]": {"test": "High temperature stability (sealed oven at 40° C., liquid chromatogram and DSC)", "experimental": "Crystal form III of (S)—N-[5-[1-(3-ethoxy-4-methoxyphenyl)-2-(methylsulfonyl)ethyl]-4,6-dioxo-5,6-dihydro-4H-thieno[3,4-c]pyrrole-1-yl]acetamide prepared according to the process of Example 1 was placed in a sealed oven at 40° C. After 1 month, liquid chromatogram and DSC were tested."}, "[3]": {"test": "Moisture absorption stability / hygroscopicity (RH=80%)", "conditions": "RH=80% (saturated ammonium chloride solution) until weight balanced", "experimental": "Moisture absorption of crystal form III of (S)—N-[5-[1-(3-ethoxy-4-methoxyphenyl)-2-(methylsulfonyl)ethyl]-4,6-dioxo-5,6-dihydro-4H-thieno[3,4-c]pyrrole-1-yl]acetamide was studied. Crystal form III of (S)—N-[5-[1-(3-ethoxy-4-methoxyphenyl)-2-(methylsulfonyl)ethyl]-4,6-dioxo-5,6-dihydro-4H-thieno[3,4-c]pyrrole-1-yl]acetamide was placed in a drier containing saturated ammonium chloride solution (RH=80%) until weight was balanced. The crystal form was tested with XRPD.\nCrystal form III of (S)—N-[5-[1-(3-ethoxy-4-methoxyphenyl)-2-(methylsulfonyl)ethyl]-4,6-dioxo-5,6-dihydro-4H-thieno[3,4-c]pyrrole-1-yl]acetamide prepared according to the process of Example 1 was tested."}, "[4]": {"test": "Aqueous solution balance stability (crystal form by XRPD after equilibrium in water)", "conditions": "37° C., 24 hours", "experimental": "About 0.5 g of crystal form III of (S)—N-[5-[1-(3-ethoxy-4-methoxyphenyl)-2-(methylsulfonyl)ethyl]-4,6-dioxo-5,6-dihydro-4H-thieno[3,4-c]pyrrole-1-yl]acetamide was added to 40 mL of water. The mixture was stirred at 37° C. for 24 hours. The suspension was filtered. After wet solid was dried, crystal form of powders was tested with X-ray powder diffraction (XRPD)."}, "[5]": {"test": "Accelerated stability (40° C. and Rh=75%, liquid chromatogram and DSC)", "experimental": "Crystal form III of (S)—N-[5-[1-(3-ethoxy-4-methoxyphenyl)-2-(methylsulfonyl)ethyl]-4,6-dioxo-5,6-dihydro-4H-thieno[3,4-c]pyrrole-1-yl]acetamide prepared according to the process of Example 1 was placed in a stability text box at 40° C. and Rh=75%. After 1 month, liquid chromatogram and DSC were tested."}}, "data": [{"compound": "CCOc1cc([C@@H](CS(C)(=O)=O)N2C(=O)c3csc(NC(C)=O)c3C2=O)ccc1OC", "note": "[Crystal Form III, (S)—N-[5-[1-(3-ethoxy-4-methoxyphenyl)-2-(methylsulfonyl)ethyl]-4,6-dioxo-5,6-dihydro-4H-thieno[3,4-c]pyrrole-1-yl]acetamide]", "values": [{"measurement": "Dissolution Rate (%)", "setting": "[1]; time 0 min", "result": 0, "unit": "%"}, {"measurement": "Dissolution Rate (%)", "setting": "[1]; time 15 min", "result": 32.2, "unit": "%"}, {"measurement": "Dissolution Rate (%)", "setting": "[1]; time 30 min", "result": 46.3, "unit": "%"}, {"measurement": "Dissolution Rate (%)", "setting": "[1]; time 45 min", "result": 55.1, "unit": "%"}, {"measurement": "Dissolution Rate (%)", "setting": "[1]; time 60 min", "result": 61.8, "unit": "%"}, {"measurement": "Dissolution Rate (%)", "setting": "[1]; time 75 min", "result": 66.5, "unit": "%"}, {"measurement": "Dissolution Rate (%)", "setting": "[1]; time 90 min", "result": 71.5, "unit": "%"}, {"measurement": "stability under high temperature conditions", "setting": "[2]; 40° C., 1 month", "result": "good stability"}, {"measurement": "Relevant Substance Contents at Day 0 (%)", "setting": "[2]; Day 0, before storage at 40° C.", "result": 0.07, "unit": "%"}, {"measurement": "Relevant Substance Contents after 1 Month (%)", "setting": "[2]; storage 40° C., sealed oven, 1 month", "result": 0.09, "unit": "%"}, {"measurement": "Moisture Absorption %)", "setting": "[3]", "result": 1.17, "unit": "%"}, {"measurement": "Weight Increase", "setting": "[3]; mAPI 0.511 g", "result": 0.006, "unit": "g"}, {"measurement": "stability in water", "setting": "[4]", "result": "good stability"}, {"measurement": "stability under high-temperature and high-humidity conditions", "setting": "[5]; 40° C. and Rh=75%, 1 month", "result": "good stability"}, {"measurement": "Relevant Substance Contents at Day 0 (%)", "setting": "[5]; Day 0, before storage at 40° C. RH = 75%", "result": 0.07, "unit": "%"}, {"measurement": "Relevant Substance Contents after 1 Month (%)", "setting": "[5]; storage 40° C. RH = 75%, 1 month", "result": 0.09, "unit": "%"}]}]}
